The results in this text go back to article PMC8159111 (Pathogens, 2021).

pIC50: −log10 of the molar value.

What all share (format): cell-based
Data set [1] relates to SARS-CoV-2 "NRC-03-nhCoV" virus. Description: Inhibitory concentration 50 (IC50) determination, reduction of virus-induced cytopathic effect in Vero-E6 cells. The settings on record: Severe acute respiratory syndrome coronavirus 2, Vero C1008, 72 h, against NRC-03-nhCoV in Vero E6, 72 h, CPE reduction, crystal violet; unit not given in Table 4 and Figure 6, Figure 4 and text print μM; read-out: IC50 (half-maximal inhibitory concentration). On the procedure:
The IC50 values for the tested compounds were determined as previously described, with minor modifications. Briefly, in 96-well tissue culture plates, 2.4 × 10^4 Vero-E6 cells were distributed in each well and incubated overnight at a humidified 37°C incubator under 5% CO2 condition. The cell monolayers were then washed once with 1× PBS. An aliquot of the SARS-CoV-2 “NRC-03-nhCoV” virus containing 100 TCID50 was incubated with serial diluted compounds and kept at 37 °C for 1 h. The Vero-E6 cells were treated with virus/compound mix and co-incubated at 37 °C in a total volume of 200 µL per well. Untreated cells infected with virus represented the virus control; however, cells that were not treated and not infected were the cell control. Following incubation at 37 °C in 5% CO2 incubator for 72 h, the cells were fixed with 100 μL of 10% paraformaldehyde for 20 min and stained with 0.5% crystal violet in distilled water for 15 min at RT. The crystal violet dye was then dissolved using 100 μL of absolute methanol per well and the optical density of the color was measured at 570 nm using the Anthos Zenyth 200 rt plate reader (Anthos Labtec Instruments, Heerhugowaard, the Netherlands).
A general note: Damage to the host cells serves as the signal in cytopathic effect assays.

The subject of data set [2] is MERS-CoV virus "NRCE-HKU270". Kind of data set: microbe, parasite or virus in culture. Particulars: Middle East respiratory syndrome-related coronavirus, Vero C1008, read-out: IC50 (half-maximal inhibitory concentration).
Data set [3] can be described thus: Cytotoxicity (CC50) determination, crystal violet assay. The settings on record: African green monkey, Vero E6 cells, Table 4 prints no unit, Figure 4 prints μM, read-out: CC50 (half-maximal cytotoxic concentration). On the procedure: To assess the half maximal cytotoxic concentration (CC50), stock solutions of the test compounds were prepared in 10% DMSO in ddH2O and diluted further to the working solutions with DMEM. The cytotoxic activity of the extracts was tested in VERO-E6 cells by using crystal violet assay as previously described with minor modifications. Briefly, the cells were seeded in 96-well plates (100 µL/well at a density of 3 × 10^5 cells/mL) and incubated for 24 h at 37 °C in a humidified 5% CO2 incubator. After 24 h, cells were treated with various concentrations of the tested compounds in triplicates. Seventy two hours later, the supernatant was discarded, and cell monolayers were fixed with 10% formaldehyde for 1 h at room temperature (RT). The fixed monolayers were then dried and stained with 50 µL of 0.1% crystal violet for 20 min on a bench rocker at RT. The monolayers were then washed, dried and the crystal violet dye in each well was then dissolved with 200 µL of methanol for 20 min on a bench rocker at RT. The absorbance of crystal violet solutions was measured at λmax 570 nm as a reference wavelength using a multi-well plate reader.

In data set [4] the test system is NRC-03-nhCoV (SARS-CoV-2) in Vero-E6 cells. Description: Mode of antiviral action, plaque infectivity reduction assay (adsorption, replication, virucidal). How it is done: To investigate whether the tested compound with high selectivity index and antiviral activity against NRC-03-nhCoV affect (a) viral adsorption, (b) viral replication or (c) viricidal effect, a plaque infectivity reduction assay was performed according to the following protocols: • (a) Viral adsorption mechanism
The viral adsorption mechanism was assayed according to a protocol by Zhang et al. with minor modifications. Vero-E6 cells were cultivated in a 6-well plate (10^5 cells/mL) for 24 h at 37 °C. Each tested drug was applied in 500 µL of medium without supplements and co-incubated with the cells for 2 h at 4 °C. The non-absorbed drug in the applied inocula was removed by washing cells three times with 1x PBS. The NRC-03-nhCoV was diluted to a countable range “10^−4” and co-incubated with the pretreated cells. About 1 h post-incubation, the inocula were removed and 3 mL of agarose overlay (1:1 mixture of warmed 2× plaque media and a stock solution of heated 2% agarose) were added. The plates were kept at room temperature to solidify and then incubated at 37 °C to allow the formation of viral plaques. The plaques were fixed using 10% formaldehyde, stained using crystal violet (1% crystal violet in 20% ethanol and distilled H2O), washed with rinse water and dried to calculate the percentage reduction in plaque formation compared to control wells, which comprised untreated Vero-E6 cells directly infected with NRC-03-nhCoV.
The impact of the tested drug on viral replication was determined as previously described. Vero-E6 cells were cultivated in a 6-well plate (10^5 cell/mL) for 24 h at 37 °C. The NRC-03-nhCoV of the countable range was inoculated directly to the cells and incubated for 1 h at 37 °C. The inocula containing the non-adsorbed virus were removed by washing infected cell monolayers three times with 1× PBS. The analyzed compound was then applied in varying concentrations to infected cells for another 1 h contact time at 37 °C. After removing the inocula containing the tested drug, agarose overlay were added to the cells. […]

For `CC1(C)CCC2(C(=O)OCc3cc(-c4ccc(Cl)cc4)no3)CCC3(C)C(=CCC4C5(C)CC(O)C(O)C(C)(C)C5CCC43C)C2C1` (stereo not drawn) [Compound 17, (3-(4-chlorophenyl)isoxazol-5-yl) methyl-(2α,3β)-2,3-dihydroxyolean-12-en-28-oate], in data set [1], the IC50 came to 4.12 µM. The pIC50 in data set [2] is 5.20. Besides, the CC50 at 72 h in data set [3] was found to be 142 µM. For the same compound, the “effect on viral adsorption” value in data set [4] (Vero-E6 cells pretreated with compound 2 h at 4 °C) was “efficiently impair viral replication and adsorption”. For the same compound, the “effect on viral replication” value in data set [4] (compound applied to infected Vero-E6 cells after adsorption) is on record as “efficiently impair viral replication”. For the same compound, the virucidal effect result in data set [4] (virus mixed with compound 1 h before infection of Vero-E6) is “virucidal effect”.
